Measurements reported in patent EP3696177A1, “HETEROCYCLIC COMPOUNDS FOR THE CONTROL OF INVERTEBRATE PESTS” (BASF SE, priority 2019, dated 2020).

Tests used:
Type in all cases: in vivo
Aedes aegypti = test: whole plant or invertebrate; settings: 48 h, A. aegypti larvae, incubated 2 days, read-out: mortality in comparison with untreated controls (larval mortality)
Protocol: For evaluating control of yellow fever mosquito (Aedes aegypti) the test unit consisted of 96-well-microtiter plates containing 200µl of tap water per well and 5-15 freshly hatched A. aegypti larvae.
The active compounds were formulated using a solution containing 75% (v/v) water and 25% (v/v) DMSO. Different concentrations of formulated compounds or mixtures were sprayed onto the insect diet at 2.5µl, using a custom built micro atomizer, at two replications.
After application, microtiter plates were incubated at 28 + 1°C, 80 + 5 % RH for 2 days. Larval mortality was then visually assessed.

Plutella xylostella = test: Diamond back moth (Plutella xylostella) cabbage leaf disc dip test; settings: foliar, 72 h, read-out: mortality in comparison with untreated controls
Protocol: The active compound is dissolved at the desired concentration in a mixture of 1:1 (vol:vol) distilled water: acetone. Surfactant (Kinetic) is added at a rate of 0.01% (vol/vol). The test solution is pre-pared at the day of use.
Cabbage leaf discs (60mm in diameter) are dipped in test solution and air-dried. Treated leaves are placed in petri dishes lined with moistened filter paper and inoculated with ten 3rd instar larvae. Mortality is recorded 72 hours after treatment. Feeding damage is also recorded using a scale of 0-100%.

dichromothrips corbetti = test: Orchid thrips floral-immersion test; settings: 72 h, read-out: mortality in comparison with untreated controls
Protocol: Dichromothrips corbetti adults used for bioassay are obtained from a colony maintained continu-ously under laboratory conditions. For testing purposes, the test compound is diluted in a 1:1 mix-ture of acetone:water (vol:vol), plus Kinetic at a rate of 0.01% v/v.
Thrips potency of each compound is evaluated by using a floral-immersion technique. Each orchid petal is dipped into treatment solution and allowed to dry in Petri dishes. Treated petals are placed into individual re-sealable plastic along with about 20 adult thrips. All test arenas are held under dark condition and a temperature of about 28°C for duration of the assay. The percent mor-tality is recorded 72 hours after treatment.

Megoura viciae = test: Vetch aphid (Megoura viciae) broad bean leaf disk test; settings: foliar, 120 h, read-out: mortality in comparison with untreated controls
Protocol: For evaluating control of vetch aphid (Megoura viciae) through contact or systemic means the test unit consisted of 24-well-microtiter plates containing broad bean leaf disks.
The compounds were formulated using a solution containing 75% v/v water and 25% v/v DMSO. Different concentrations of formulated compounds were sprayed onto the leaf disks at 2.5 µl, us-ing a custom built micro atomizer, at two replications.
After application, the leaf disks were air-dried and 5 - 8 adult aphids placed on the leaf disks in-side the microtiter plate wells. The aphids were then allowed to suck on the treated leaf disks and incubated at about 23 + 1°C and about 50 + 5 % relative humidity for 5 days. Aphid mortality and fecundity was then visually assessed.

Myzus persicae = test: Green peach aphid (Myzus persicae) artificial diet/membrane systemic test; settings: 72 h, read-out: mortality in comparison with untreated controls
Text: For evaluating control of green peach aphid (Myzus persicae) through systemic means the test unit consisted of 96-well-microtiter plates containing liquid artificial diet under an artificial membrane.
The compounds were formulated using a solution containing 75% v/v water and 25% v/v DMSO. Different concentrations of formulated compounds were pipetted into the aphid diet, using a cus-tom built pipetter, at two replications.
After application, 5 - 8 adult aphids were placed on the artificial membrane inside the microtiter plate wells. The aphids were then allowed to suck on the treated aphid diet and incubated at about 23 + 1°C and about 50 + 5 % relative humidity for 3 days. Aphid mortality and fecundity was then visually assessed.

Heliothis virescens = test: Tobacco budworm (Heliothis virescens) insect diet microtiter plate test; settings: 120 h, read-out: mortality in comparison with untreated controls (egg and larval mortality)
Protocol: For evaluating control of tobacco budworm (Heliothis virescens) the test unit consisted of 96-well-microtiter plates containing an insect diet and 15-25 H. virescens eggs.
The compounds were formulated using a solution containing 75% v/v water and 25% v/v DMSO. Different concentrations of formulated compounds were sprayed onto the insect diet at 10 µl, us-ing a custom built micro atomizer, at two replications.
After application, microtiter plates were incubated at about 28 + 1°C and about 80 + 5 % relative humidity for 5 days. Egg and larval mortality was then visually assessed.

Anthonomus grandis = test: Boll weevil (Anthonomus grandis) insect diet microtiter plate test; settings: 120 h, read-out: mortality in comparison with untreated controls (egg and larval mortality)
Protocol: For evaluating control of boll weevil (Anthonomus grandis) the test unit consisted of 96-well-microtiter plates containing an insect diet and 5-10 A. grandis eggs.
The compounds were formulated using a solution containing 75% v/v water and 25% v/v DMSO. Different concentrations of formulated compounds were sprayed onto the insect diet at 5 µl, using a custom built micro atomizer, at two replications.
After application, microtiter plates were incubated at about 25 + 1°C and about 75 + 5 % relative humidity for 5 days. Egg and larval mortality was then visually assessed.

Caenorhabditis elegans = Caenorhabditis elegans liquid diet microtiter plate test; settings: 96 h, read-out: mortality in comparison with untreated controls (nematode motility (mortality))
Protocol: For evaluating control of Caenorhabditis elegans through contact or systemic means the test unit consisted of 96-well-microtiter plates containing a liquid diet.
The compounds or mixtures were formulated using a solution containing 75% water and 25% DMSO. Different concentrations of formulated compounds were sprayed into the microtiter plate wells at 5µl per well, using a custom built micro atomizer, at two replications. Mixed instar 60-100 C. elegans were transferred into the micro-titer plate wells. After application, the nematodes were incubated at 18 + 1°C, 70 + 5 % RH for 4 days. Nematode motility (mortality) was then visually assessed.

Tetranychus kanzawai = test: Red spider mite (Tetranychus kanzawai) spray test on cowpea beans; settings: topical, 72 h, read-out: mortality in comparison with untreated controls
Protocol: The active compound is dissolved at the desired concentration in a mixture of 1:1 (vol:vol) distilled water: acetone. Add surfactant (Kinetic) is added at a rate of 0.01% (vol/vol). The test solution is prepared at the day of use.
Potted cowpea beans of 4-5 days of age are cleaned with tap water and sprayed with 1-2 ml of the test solution using air driven DeVilbiss® hand atomizer at 20- 30 psi (≈ 1,38 to 2,07 bar). The treated plants are allowed to air dry and afterwards inoculated with 30 or more mites by clipping a cassava leaf section from rearing population. Treated plants are placed inside a holding room at about 25-26°C and about 65-70% relative humidity. Estimate percent mortality is assessed 72 hours after treatment.

Nephotettix virescens = test: Rice green leafhopper (Nephotettix virescens) spray test on rice seedlings; settings: adults, after 72 hours, read-out: mortality in comparison with untreated controls
Protocol: Four to five-week old rice seedlings with cut upper leaf portion are cleaned and washed 24 hours before spraying. The active compounds are formulated in 1:1 acetone:water (vol:vol), and 0.01% vol/vol surfactant (Kinetic) is added. Potted rice seedlings are sprayed with 5-6 ml test solution, air dried, covered with Mylar cages and inoculated with 10 adults. Treated rice plants are kept at about 28-29°C and relative humidity of about 50-60%. Percent mortality is recorded after 72 hours.

O=C(NCC1OCN(CC2CC2)C1=O)c1ccc(C2=NOC(c3cc(Cl)cc(C(F)(F)F)c3)(C(F)(F)F)C2)c2c1CCC2 (centres unmarked) [Compound I-3-4]
> 75%: mortality at 2500 ppm (Aedes aegypti) | mortality at 300 ppm (Plutella xylostella) | mortality at 300 ppm (dichromothrips corbetti) | mortality at 2500 ppm (Megoura viciae) | mortality at 2500 ppm (Myzus persicae) | mortality at 2500 ppm (Heliothis virescens) | mortality at 2500 ppm (Anthonomus grandis)

O=C(NCC1OC(=O)N(CC2CC2)C1=O)c1ccc(C2=NOC(c3cc(Cl)cc(Cl)c3)(C(F)(F)F)C2)cc1Cl (centres unmarked) [Compound I-4-3]
> 75%: mortality at 2500 ppm (Aedes aegypti) | mortality at 300 ppm (Plutella xylostella) | mortality at 300 ppm (dichromothrips corbetti) | mortality at 2500 ppm (Megoura viciae) | mortality at 2500 ppm (Myzus persicae) | mortality at 2500 ppm (Heliothis virescens) | mortality at 2500 ppm (Caenorhabditis elegans) | mortality at 2500 ppm (Anthonomus grandis)

O=C(NCC1OCN(CC(F)(F)F)C1=O)c1ccc(C2=NOC(c3cc(Cl)cc(Cl)c3)(C(F)(F)F)C2)cc1Cl (centres unmarked) [Compound I-3-9]
> 75%: mortality at 2500 ppm (Aedes aegypti) | mortality at 300 ppm (Plutella xylostella) | mortality at 300 ppm (dichromothrips corbetti) | mortality at 2500 ppm (Megoura viciae) | mortality at 2500 ppm (Myzus persicae) | mortality at 2500 ppm (Heliothis virescens) | mortality at 2500 ppm (Caenorhabditis elegans) | mortality at 2500 ppm (Anthonomus grandis)

Cc1cc(C2=NOC(c3cc(Cl)cc(Cl)c3)(C(F)(F)F)C2)ccc1C(=O)NCC1OC(=O)N(C)C1=O (centres unmarked) [Compound I-4-4]
> 75%: mortality at 2500 ppm (Aedes aegypti) | mortality at 300 ppm (Plutella xylostella) | mortality at 300 ppm (Tetranychus kanzawai) | mortality at 300 ppm (dichromothrips corbetti) | mortality at 2500 ppm (Megoura viciae) | mortality at 2500 ppm (Myzus persicae) | mortality at 2500 ppm (Heliothis virescens) | mortality at 2500 ppm (Caenorhabditis elegans) | mortality at 2500 ppm (Anthonomus grandis)

O=C(NCC1OCN(CC2CC2)C1=O)c1ccc(C2=NOC(c3cc(Cl)c(F)c(Cl)c3)(C(F)(F)F)C2)cc1Cl (centres unmarked) [Compound I-3-6]
> 75%: mortality at 2500 ppm (Aedes aegypti) | mortality at 300 ppm (Plutella xylostella) | mortality at 300 ppm (dichromothrips corbetti) | mortality at 2500 ppm (Megoura viciae) | mortality at 2500 ppm (Myzus persicae) | mortality at 2500 ppm (Heliothis virescens) | mortality at 2500 ppm (Anthonomus grandis)

Cc1cc(C2=NOC(c3cc(Cl)cc(Cl)c3)(C(F)(F)F)C2)ccc1C(=O)NCC1OCN(CC2CC2)C1=O (centres unmarked) [Compound I-3-14]
> 75%: mortality at 2500 ppm (Aedes aegypti) | mortality at 300 ppm (Plutella xylostella) | mortality at 300 ppm (Tetranychus kanzawai) | mortality at 300 ppm (dichromothrips corbetti) | mortality at 2500 ppm (Megoura viciae) | mortality at 2500 ppm (Myzus persicae) | mortality at 2500 ppm (Heliothis virescens) | mortality at 2500 ppm (Caenorhabditis elegans) | mortality at 2500 ppm (Anthonomus grandis)

Cc1cc(C2=NOC(c3cc(Cl)cc(Cl)c3)(C(F)(F)F)C2)ccc1C(=O)NCC1OC(=O)N(CC2CC2)C1=O (centres unmarked) [Compound I-4-6]
> 75%: mortality at 2500 ppm (Aedes aegypti) | mortality at 300 ppm (Plutella xylostella) | mortality at 300 ppm (dichromothrips corbetti) | mortality at 2500 ppm (Megoura viciae) | mortality at 2500 ppm (Myzus persicae) | mortality at 2500 ppm (Heliothis virescens) | mortality at 2500 ppm (Caenorhabditis elegans) | mortality at 2500 ppm (Anthonomus grandis)

O=C(NCC1OCN(CC2CC2)C1=O)c1ccc(C2=NOC(c3cc(Cl)cc(Cl)c3)(C(F)(F)F)C2)cc1Cl (centres unmarked) [Compound I-3-10]
> 75%: mortality at 2500 ppm (Aedes aegypti) | mortality at 300 ppm (Plutella xylostella) | mortality at 300 ppm (dichromothrips corbetti) | mortality at 2500 ppm (Myzus persicae) | mortality at 2500 ppm (Heliothis virescens) | mortality at 2500 ppm (Caenorhabditis elegans) | mortality at 2500 ppm (Anthonomus grandis)

O=C(NCC1OCN(CC2CC2)C1=O)c1ccc(C2=NOC(c3cc(Cl)c(F)c(Cl)c3)(C(F)(F)F)C2)c2c1CCC2 (centres unmarked) [Compound I-3-2]
> 75%: mortality at 2500 ppm (Aedes aegypti) | mortality at 300 ppm (Nephotettix virescens) | mortality at 300 ppm (Plutella xylostella) | mortality at 300 ppm (Tetranychus kanzawai) | mortality at 300 ppm (dichromothrips corbetti) | mortality at 2500 ppm (Megoura viciae) | mortality at 2500 ppm (Myzus persicae) | mortality at 2500 ppm (Heliothis virescens) | mortality at 2500 ppm (Caenorhabditis elegans) | mortality at 2500 ppm (Anthonomus grandis)

O=C(NCC1OC(=O)N(CC(F)(F)F)C1=O)c1ccc(C2=NOC(c3cc(Cl)cc(Cl)c3)(C(F)(F)F)C2)cc1Cl (centres unmarked) [Compound I-4-2]
> 75%: mortality at 2500 ppm (Aedes aegypti) | mortality at 300 ppm (Plutella xylostella) | mortality at 300 ppm (dichromothrips corbetti) | mortality at 2500 ppm (Megoura viciae) | mortality at 2500 ppm (Myzus persicae) | mortality at 2500 ppm (Heliothis virescens) | mortality at 2500 ppm (Caenorhabditis elegans) | mortality at 2500 ppm (Anthonomus grandis)

Cc1cc(C2=NOC(c3cc(Cl)cc(Cl)c3)(C(F)(F)F)C2)ccc1C(=O)NCC1OCN(CC(F)(F)F)C1=O (centres unmarked) [Compound I-3-13]
> 75%: mortality at 2500 ppm (Aedes aegypti) | mortality at 300 ppm (Plutella xylostella) | mortality at 300 ppm (Tetranychus kanzawai) | mortality at 300 ppm (dichromothrips corbetti) | mortality at 2500 ppm (Megoura viciae) | mortality at 2500 ppm (Myzus persicae) | mortality at 2500 ppm (Heliothis virescens) | mortality at 2500 ppm (Caenorhabditis elegans) | mortality at 2500 ppm (Anthonomus grandis)

CN1C(=O)OC(CNC(=O)c2ccc(C3=NOC(c4cc(Cl)cc(Cl)c4)(C(F)(F)F)C3)cc2Cl)C1=O (centres unmarked) [Compound I-4-1, 2-chloro-4-[5-(3,5-dichlorophenyl)-5-(trifluoromethyl)-4H-isoxazol-3-yl]-N-[(3-methyl-2,4-dioxo-oxazolidin-5-yl)methyl]benzamide]
> 75%: mortality at 300 ppm (Plutella xylostella) | mortality at 300 ppm (dichromothrips corbetti) | mortality at 2500 ppm (Megoura viciae) | mortality at 2500 ppm (Myzus persicae) | mortality at 2500 ppm (Heliothis virescens) | mortality at 2500 ppm (Caenorhabditis elegans) | mortality at 2500 ppm (Anthonomus grandis)

Cc1cc(C2=NOC(c3cc(Cl)cc(Cl)c3)(C(F)(F)F)C2)ccc1C(=O)NCC1OC(=O)N(CC(F)(F)F)C1=O (centres unmarked) [Compound I-4-5]
> 75%: mortality at 2500 ppm (Aedes aegypti) | mortality at 300 ppm (Plutella xylostella) | mortality at 300 ppm (dichromothrips corbetti) | mortality at 2500 ppm (Megoura viciae) | mortality at 2500 ppm (Myzus persicae) | mortality at 2500 ppm (Heliothis virescens) | mortality at 2500 ppm (Caenorhabditis elegans) | mortality at 2500 ppm (Anthonomus grandis)

CCN1COC(CNC(=O)c2ccc(C3=NOC(c4cc(Cl)cc(Cl)c4)(C(F)(F)F)C3)cc2Cl)C1=O (centres unmarked) [Compound I-3-8]
> 75%: mortality at 2500 ppm (Aedes aegypti) | mortality at 300 ppm (Plutella xylostella) | mortality at 300 ppm (dichromothrips corbetti) | mortality at 2500 ppm (Megoura viciae) | mortality at 2500 ppm (Myzus persicae) | mortality at 2500 ppm (Heliothis virescens) | mortality at 2500 ppm (Caenorhabditis elegans) | mortality at 2500 ppm (Anthonomus grandis)
